Read-outs that look alike come from different tables or passages of the source.
Columns and labels:
[1] = test system: Mycobacterium tuberculosis strains
Experimental: MIC values for various Chp peptides were determined using the CLSI method for broth microdilution in 96-well microtiter format.
Next, MIC values for various Chp peptides were determined using the CLSI method above for broth microdilution in 96-well microtiter format for two different Mycobacterium tuberculosis strains. The MIC was determined as explained above for the NTM strains.

M. intracellulare = assay: 45 hr MIC against M. intracellulare (NTM); format: cell-based, Mycobacterium intracellulare; conditions: M. intracellulare (Cuttino and McCabe) Runyon ATCC 13950
Klebsiella pneumoniae = format: cell-based; conditions: for MIC50 / MIC100 / MIC Range: K. pneumoniae isolates (n per peptide in table); for MIC: Klebsiella pneumoniae HM-44, CAA supplemented with human serum
Experimental: (§1) Determination of Minimal Inhibitory Concentrations (MIC).
(§2) Additional MIC testing was performed for several peptides against the ESKAPE pathogens Escherichia coli, Enterobacter cloacae, Klebsiella pneumoniae, and Acinetobacter baumannii, in CAA supplemented with human serum (Table D).

M. avium = assay: 45 hr MIC against M. avium (NTM); format: cell-based, Mycobacterium avium; conditions: M. avium Chester ATCC 700898
Acinetobacter baumannii = assay: microbe, parasite or virus in culture; format: cell-based; conditions: for MIC50 / MIC100 / MIC Range: A. baumannii isolates (n per peptide in table); for MIC: Acinetobacter baumannii ATCC BAA 747, CAA supplemented with human serum
M. smegmatis = assay: 45 hr MIC against M. smegmatis (NTM), Mueller Hinton broth; format: cell-based, Mycobacterium smegmatis
Pseudomonas aeruginosa = assay: microbe, parasite or virus in culture; format: cell-based; conditions: P. aeruginosa isolates (n per peptide in table)
[2] = test system: M. kansasii Hauduroy ATCC 12478; assay: 45 hr MIC against M. kansasii (NTM), Mueller Hinton broth; format: cell-based, Mycobacterium kansasii
S. maltophilia = assay: MIC against S. maltophilia isolates; format: cell-based, Stenotrophomonas maltophilia; conditions: S. maltophilia isolates (n per peptide in table)
Experimental: as §1
In addition to the results discussed above in Example 3, further testing was conducted on several Chp peptides. MIC values were determined against different species, including P. aeruginosa, K. pneumoniae, A. baumannii, E. cloacae, E. coli, and S. maltophilia, and the results are presented below in Tables 40-45, wherein n=number of isolates tested for each species and MIC is measured as μg/mL.

M. fortuitum = assay: 45 hr MIC against M. fortuitum (NTM); format: cell-based, Mycobacterium fortuitum; conditions: M. fortuitum subsp. Fortuitum da Costa Cruz. ATCC 6841
M. scrofulaceum = assay: 45 hr MIC against M. scrofulaceum (NTM); format: cell-based, Mycobacterium scrofulaceum; conditions: M. scrofulaceum Prissick and Masson ATCC 19981
[3] = test system: carbapenem-resistant P. aeruginosa clinical isolate CFS-1292; assay: MIC by modified CLSI broth microdilution against P. aeruginosa CFS-1292 (CAA, CAA + human serum); format: cell-based, Pseudomonas aeruginosa; conditions: for MIC (μg/mL) against CFS-1292 in 100% CAA (1st run/2nd run): 1st run or single value
[4] = test system: carbapenem-resistant bacterial strains; assay: organism not typed; format: cell-based
Excerpt: as §1

[5] = Stability assessment in 100% CAA; format: in vitro ADME; set-up: unit not given beside the values
Experimental: Stability was assessed after incubation in 100% human serum at 37° C. after 10 minutes, 1 hour, and 2 hours.
Stability assessment was further conducted in 100% CAA and rabbit serum using the same methodology discussed above.

Enterobacter cloacae = assay: microbe, parasite or virus in culture; format: cell-based; conditions: for MIC: Enterobacter cloacae ATCC 13047, CAA supplemented with human serum
Experimental: as §1, §2

Escherichia coli = assay: microbe, parasite or virus in culture; format: cell-based; conditions: for MIC50 / MIC100 / MIC Range: E. coli isolates (n per peptide in table); for MIC: Escherichia coli ATCC 25922, CAA supplemented with human serum
Experimental: as §1, §2

[6] = Mycobacterium tuberculosis (Zopf) Lehmann and Neumann ATCC 25177
[7] = Mycobacterium tuberculosis (Zopf) Lehmann and Neumann ATCC 35817
[8] = carbapenem-resistant isolate PA19
[9] = carbapenem-resistant isolate PA20
[10] = carbapenem-resistant isolate PA21
[11] = carbapenem-resistant isolate PA22
[12] = carbapenem-resistant isolate PA23
[13] = carbapenem-resistant isolate PA24
[14] = carbapenem-resistant isolate WLC-452
[15] = E. cloacae isolates (n per peptide in table)

Sequence	MIC [1, 6]	MIC [1, 7]	45 hr MIC (M. intracellulare)	MIC50 (Klebsiella pneumoniae)	MIC100 (Klebsiella pneumoniae)	45 hr MIC (M. avium)	MIC50 (Acinetobacter baumannii)	MIC100 (Acinetobacter baumannii)	MIC Range (Acinetobacter baumannii)	45 hr MIC (M. smegmatis; M. smegmatis MC^2 155, Run #1)	45 hr MIC (M. smegmatis; M. smegmatis MC^2 155, Run #2)	MIC50 (Pseudomonas aeruginosa)	MIC100 (Pseudomonas aeruginosa)	45 hr MIC [2]	MIC50 (S. maltophilia)	MIC100 (S. maltophilia)	45 hr MIC (M. fortuitum)	45 hr MIC (M. scrofulaceum)	MIC Range (Klebsiella pneumoniae)	MIC (Klebsiella pneumoniae)	also measured
MAKKIRNKARDRRIFTRTASRMHKANRTPRFMRGGIRL [ALCES1]	32 µg/mL	8 µg/mL	2 µg/mL	>8 µg/mL	>8 µg/mL	8 µg/mL	2 µg/mL	2 µg/mL	1 to 2 µg/mL	1 µg/mL	2 µg/mL	>8 µg/mL	>8 µg/mL	2 µg/mL	4 µg/mL	8 µg/mL	4 µg/mL	2 µg/mL			
MSKKRSRMSRRRSKKLFSKTALRTKSVNTRPPMRGGFRF [Chp8]	32 µg/mL	8 µg/mL	4 µg/mL	4 µg/mL	8 µg/mL	8 µg/mL	0.5 µg/mL	1 µg/mL	0.25 to 2 µg/mL	4 µg/mL	8 µg/mL	8 µg/mL	>8 µg/mL	4 µg/mL	>8 µg/mL	>8 µg/mL	2 µg/mL	4 µg/mL	2 to 8 µg/mL	4 µg/mL	MIC (μg/mL) against CFS-1292 in 100% CAA (1st run/2nd run) [3]: 0.5 µg/mL; MIC (μg/mL) against CFS-1292 in CAA + […] human serum ([3]; CAA + […] human serum): 2 µg/mL; MIC (Acinetobacter baumannii): 2 µg/mL; MIC [4, 8]: 1 µg/mL; MIC [4, 9]: >8 µg/mL; MIC [4, 10]: >8 µg/mL; MIC [4, 11]: >8 µg/mL; MIC [4, 12]: >8 µg/mL; MIC [4, 13]: 8 µg/mL; MIC [4, 14]: 4 µg/mL; MIC (100% CAA) [5]: 0.5; MIC50 (Enterobacter cloacae; [15]): 2 µg/mL; MIC100 (Enterobacter cloacae; [15]): 4 µg/mL; MIC Range (Enterobacter cloacae; [15]): 1 to 8 µg/mL; MIC (Enterobacter cloacae): 16 µg/mL; MIC50 (Escherichia coli): 2 µg/mL; MIC100 (Escherichia coli): 4 µg/mL; MIC Range (Escherichia coli): 0.5 to 4 µg/mL; MIC (Escherichia coli): 0.5 µg/mL
MSLRRHKLSRKASKRIFRKGASRTKTLNTRATPMRGGFRI [Chp9]	32 µg/mL	16 µg/mL	4 µg/mL	>8 µg/mL	>8 µg/mL	>64 µg/mL	2 µg/mL	2 µg/mL	0.5 to 2 µg/mL	4 µg/mL	8 µg/mL	>8 µg/mL	>8 µg/mL	8 µg/mL	>8 µg/mL	>8 µg/mL	4 µg/mL	8 µg/mL	>8 µg/mL	1 µg/mL	MIC (μg/mL) against CFS-1292 in 100% CAA (1st run/2nd run) [3]: 8 µg/mL; MIC (Acinetobacter baumannii): 4 µg/mL; MIC [4, 8]: 8 µg/mL; MIC [4, 9]: >8 µg/mL; MIC [4, 10]: >8 µg/mL; MIC [4, 11]: >8 µg/mL; MIC [4, 12]: >8 µg/mL; MIC [4, 13]: >8 µg/mL; MIC [4, 14]: 8 µg/mL; MIC (100% CAA) [5]: 2; MIC50 (Enterobacter cloacae; [15]): 4 µg/mL; MIC100 (Enterobacter cloacae; [15]): >8 µg/mL; MIC (Enterobacter cloacae): 32 µg/mL; MIC50 (Escherichia coli): 2 µg/mL; MIC100 (Escherichia coli): 8 µg/mL; MIC Range (Escherichia coli): 0.5 to 8 µg/mL; MIC (Escherichia coli): 1 µg/mL

— patent US20220401514A1, “ANTIMICROBIAL, BACTERIOPHAGE-DERIVED POLYPEPTIDES AND THEIR USE AGAINST GRAM-NEGATIVE AND ACID-FAST BACTERIA” (CONTRAFECT CORPORATION, priority 2019, published 2022)
